Values quoted from earlier work, collected in patent US8633194B2, “Pharmaceutical composition of piperazine derivatives” (UCB Pharma, S.A., priority 2004, dated 2014).

Target: histamine H1-receptor (Homo sapiens, UniProt P35367)
Settings: in vitro

Sequence of histamine H1-receptor (P35367 whole entry, species assumed): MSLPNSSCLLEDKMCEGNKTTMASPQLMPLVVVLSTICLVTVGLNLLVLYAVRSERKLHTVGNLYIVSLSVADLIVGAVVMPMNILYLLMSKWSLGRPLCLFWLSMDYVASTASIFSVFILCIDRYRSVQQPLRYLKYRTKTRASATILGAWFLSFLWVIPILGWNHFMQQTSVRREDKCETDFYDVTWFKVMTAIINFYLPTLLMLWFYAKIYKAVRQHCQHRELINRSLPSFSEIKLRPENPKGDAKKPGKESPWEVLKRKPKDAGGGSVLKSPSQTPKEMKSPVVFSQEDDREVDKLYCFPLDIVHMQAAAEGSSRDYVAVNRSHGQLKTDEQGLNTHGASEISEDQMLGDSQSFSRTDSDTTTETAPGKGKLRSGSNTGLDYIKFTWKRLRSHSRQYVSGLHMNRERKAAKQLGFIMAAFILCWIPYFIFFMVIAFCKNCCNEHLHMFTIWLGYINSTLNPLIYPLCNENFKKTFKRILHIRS

Affinity for H1-receptors: high affinity
Selectivity for H1-receptors: selectivity
SMILES: O=C(O)COCCN1CCN(C(c2ccc(F)cc2)c2ccc(F)cc2)CC1 [Efletirizine, 2-[2-[4-[bis(4-fluorophenyl)methyl]-1-piperazinyl]ethoxy]acetic acid]
